In ChEMBL document CHEMBL1145280, “Control of hepatitis C: a medicinal chemistry perspective” (J Med Chem, 2005) one finds IC50 and inhibition data, which are given here for 12 compounds.

Experiment [1] addresses T1, NS3 (Hepatitis C virus, UniProt A3EZJ3). The experiment is described as follows: Inhibitory concentration against hepatitis C virus NS4A binding region of NS3 protease. Details: species or system Hepacivirus hominis.
In a further experiment the target is Genome polyprotein (Hepatitis C virus genotype 1a (isolate 1) (HCV), UniProt P26664). The experiment is described as follows: Inhibitory concentration against hepatitis C virus NS2/3 protease. Also on record: species or system Hepacivirus hominis.
In experiment [2] the target is T2, Hepatitis C virus NS4A protein (Hepatitis C virus, UniProt D2K2A8).
T2 sequence (D2K2A8 whole entry): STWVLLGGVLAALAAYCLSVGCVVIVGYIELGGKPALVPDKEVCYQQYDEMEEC
Nature of the experiment: Inhibitory concentration against hepatitis C NS4A protease. Also on record: species or system Hepacivirus hominis.

Experiment [3] deals with T2, Hepatitis C virus NS4A protein. Nature of the experiment: Inhibitory concentration against hepatitis C virus NS4A active site. Also on record: species or system Hepacivirus hominis.
The target in experiment [4] is T1, NS3. Nature of the experiment: Inhibitory concentration against hepatitis C virus helicase; range 0.6-0.7. Also on record: species or system Hepacivirus hominis.
In another experiment the target is NS3 (Hepatitis C virus) (UniProt A3EZJ3). The experiment is described as follows: Percent inhibition against hepatitis C virus helicase at 25 ug/mL; Range 6-13. As to conditions: Hepacivirus hominis.

Positions of bridges follow the written chain, without caps; N, C: chain ends. Non-standard residues stand in square brackets, D forms with d. Residues, ends and D or L forms follow the SMILES beside them. Chains are numbered I, II in the order given. Ahx = NCCCCCC(=O)O

T1 sequence (A3EZJ3 whole entry): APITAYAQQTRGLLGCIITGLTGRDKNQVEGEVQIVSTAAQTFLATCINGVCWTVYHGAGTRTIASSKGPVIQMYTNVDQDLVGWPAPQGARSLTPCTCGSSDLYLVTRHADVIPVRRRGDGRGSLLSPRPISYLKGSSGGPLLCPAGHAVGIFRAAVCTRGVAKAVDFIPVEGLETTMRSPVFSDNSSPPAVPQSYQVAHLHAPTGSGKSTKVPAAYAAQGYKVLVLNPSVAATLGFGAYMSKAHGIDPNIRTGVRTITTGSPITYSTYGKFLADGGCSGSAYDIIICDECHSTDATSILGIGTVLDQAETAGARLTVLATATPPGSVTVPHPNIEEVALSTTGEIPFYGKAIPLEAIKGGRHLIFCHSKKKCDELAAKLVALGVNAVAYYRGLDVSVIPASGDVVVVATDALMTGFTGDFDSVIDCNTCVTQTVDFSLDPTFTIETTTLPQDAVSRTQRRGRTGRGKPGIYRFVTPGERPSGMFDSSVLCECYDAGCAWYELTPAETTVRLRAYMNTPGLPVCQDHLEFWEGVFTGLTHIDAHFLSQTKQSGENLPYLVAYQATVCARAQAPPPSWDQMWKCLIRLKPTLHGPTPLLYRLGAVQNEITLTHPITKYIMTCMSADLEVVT
Sequence of Genome polyprotein (P26664 810-1026 limits assumed): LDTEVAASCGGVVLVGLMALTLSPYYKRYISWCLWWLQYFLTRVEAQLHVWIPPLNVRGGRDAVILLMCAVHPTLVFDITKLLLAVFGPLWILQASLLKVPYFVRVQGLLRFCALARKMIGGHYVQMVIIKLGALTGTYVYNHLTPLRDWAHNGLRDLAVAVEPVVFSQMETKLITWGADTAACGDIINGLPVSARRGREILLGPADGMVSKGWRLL
Sequence of Genome polyprotein (P26664 1027-1657 limits assumed): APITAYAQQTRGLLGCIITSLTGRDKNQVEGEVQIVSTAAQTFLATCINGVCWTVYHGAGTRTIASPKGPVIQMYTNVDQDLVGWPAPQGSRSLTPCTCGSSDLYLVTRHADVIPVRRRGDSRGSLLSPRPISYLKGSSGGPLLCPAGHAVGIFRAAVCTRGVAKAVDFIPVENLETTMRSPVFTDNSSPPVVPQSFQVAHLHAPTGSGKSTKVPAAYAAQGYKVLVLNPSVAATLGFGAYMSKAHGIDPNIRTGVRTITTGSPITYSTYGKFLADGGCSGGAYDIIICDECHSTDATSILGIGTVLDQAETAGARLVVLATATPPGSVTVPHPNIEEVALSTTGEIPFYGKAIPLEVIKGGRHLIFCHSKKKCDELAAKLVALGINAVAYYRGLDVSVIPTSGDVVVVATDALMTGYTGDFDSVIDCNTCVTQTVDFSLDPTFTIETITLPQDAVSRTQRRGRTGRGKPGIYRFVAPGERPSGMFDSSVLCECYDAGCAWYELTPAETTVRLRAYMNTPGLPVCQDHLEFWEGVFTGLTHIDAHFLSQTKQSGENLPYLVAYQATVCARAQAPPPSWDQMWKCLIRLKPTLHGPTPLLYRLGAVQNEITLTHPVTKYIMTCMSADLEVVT
Sequence of NS3 (Hepatitis C virus) (A3EZJ3 as listed by the source): as the sequence (A3EZJ3 whole entry) above

The term IC50 denotes the concentration that gives 50% inhibition. With `CC[C@H](C)[C@@H](NC(=O)[C@H](NC(=O)[C@@H](CC(C)C)NC(=O)[C@@H](CO)NC(=O)CNC(=O)[C@H](CCCCN)NC(=O)CCCCCNC(=O)CCCCCNC(=O)[C@H](CS)NC(=O)[C@H](CS)NC(=O)[C@@H](NC(=O)[C@@H](NC(=O)[C@H](CC(=O)O)NC(=O)[C@@H](N)CCC(=O)O)C(C)C)C(C)C)C(C)C)C(=O)N[C@H](CCCN=C(N)N)C(=O)NCC(=O)N[C@@H](C(=O)N[C@@H](C(=O)N[C@@H](C(=O)N[C@@H](C(=O)N[C@H](CS)C(=O)O)C(C)C)C(C)C)[C@@H](C)CC)C(C)C`, the IC50 on NS3 [1] turned out to be 200 nM. Compound Ac-RGGSVVIVGRIILSGRK-OH yielded a 50% inhibitory concentration (IC50) on Genome polyprotein of 3400 nM.

In the case of H-CVVIVGRIVLSGK-OH, in experiment [2], the IC50 turned out to be 200 nM. For `CC[C@H](C)[C@H](NC(=O)CNC(=O)[C@H](CCCN=C(N)N)NC(=O)[C@@H](NC(=O)[C@@H](NC(=O)[C@H](CC(C)C)NC(=O)[C@H](CO)NC(=O)CNC(=O)[C@H](CCCCN)NC(=O)CCCCCNC(=O)[C@H](CS)NC(=O)[C@H](CS)NC(=O)[C@@H](NC(=O)[C@@H](NC(=O)[C@H](CCC(=O)O)NC(=O)[C@@H](N)CC(=O)O)C(C)C)C(C)C)C(C)C)[C@@H](C)CC)C(=O)N[C@H](C(=O)N[C@H](C(=O)N[C@@H](CS)C(=O)N[C@@H](CCCCN)C(=O)O)C(C)C)C(C)C` (H-DEVVCC[Ahx]KGSLVIRGIVVCK-OH), the IC50 at NS3 [1] was 200 nM. In the case of H-SLVIRGVIV-OH, the IC50 in experiment [3] worked out at 600 nM. `CN1CCN(CCCN2c3ccccc3Sc3ccc(C(F)(F)F)cc32)CC1` [TRIFLUOPERAZINE] displayed an IC50 at NS3 [4] of 700 nM. As for `CC[C@H](C)[C@H](NC(=O)[C@H](CCCNC(=N)N)NC(=O)CNC(=O)[C@@H](NC(=O)[C@@H](NC(=O)[C@@H](NC(=O)[C@@H](NC(=O)[C@H](CS)NC(=O)CCCCCNC(=O)CCCCCNC(=O)[C@H](CS)NC(=O)[C@H](CS)NC(=O)[C@@H](NC(=O)[C@@H](NC(=O)[C@H](CC(=O)O)NC(=O)[C@@H](N)CCC(=O)O)C(C)C)C(C)C)C(C)C)C(C)C)[C@@H](C)CC)C(C)C)C(=O)N[C@H](C(=O)N[C@@H](CC(C)C)C(=O)N[C@@H](CO)C(=O)NCC(=O)N[C@@H](CCCCN)C(=O)O)C(C)C` (H-EDVVCC[Ahx][Ahx]CVVIVGRIVLSGK-OH), the IC50 on NS3 [1] stood at 600 nM. H-KGSLVIRGVIVVCK-OH yielded an IC50 in experiment [3] of 200 nM. As for H-KGSVVIVGRIILSGRK-OH, it took 5700 nM to reach half-maximal inhibition on Genome polyprotein (IC50). Turning to `CC[C@H](C)[C@H](NC(=O)[C@H](CCCN=C(N)N)NC(=O)CNC(=O)[C@@H](NC(=O)[C@@H](NC(=O)[C@@H](NC(=O)[C@@H](NC(=O)[C@H](CS)NC(=O)CCCCCNC(=O)[C@H](CS)NC(=O)[C@H](CS)NC(=O)[C@@H](NC(=O)[C@@H](NC(=O)[C@H](CC(=O)O)NC(=O)[C@@H](N)CCC(=O)O)C(C)C)C(C)C)C(C)C)C(C)C)[C@@H](C)CC)C(C)C)C(=O)N[C@H](C(=O)N[C@@H](CC(C)C)C(=O)N[C@@H](CO)C(=O)NCC(=O)N[C@@H](CCCCN)C(=O)N[C@@H](CCCCN)C(=O)O)C(C)C` (H-EDVVCC[Ahx]CVVIVGRIVLSGKK-OH), the IC50 on NS3 [1] came to 3000 nM. In turn, `CC[C@H](C)[C@H](NC(=O)[C@H](CCCN=C(N)N)NC(=O)CNC(=O)[C@@H](NC(=O)[C@@H](NC(=O)[C@@H](NC(=O)[C@@H](NC(=O)[C@@H](N)CS)C(C)C)C(C)C)[C@@H](C)CC)C(C)C)C(=O)N[C@H](C(=O)N[C@@H](CC(C)C)C(=O)N[C@@H](CO)C(=O)NCC(=O)N[C@@H](CCCCN)C(=O)NCCCC[C@H](NC(=O)CCCCCNC(=O)[C@H](CS)NC(=O)[C@H](CS)NC(=O)[C@@H](NC(=O)[C@@H](NC(=O)[C@H](CC(=O)O)NC(=O)[C@@H](N)CCC(=O)O)C(C)C)C(C)C)C(=O)O)C(C)C` (I: H-CVVIVGRIVLSGK / II: H-EDVVCC[Ahx]K-OH; amide I:C-II:8) registered an IC50 on NS3 [1] of 3000 nM. As a reminder, the inhibition is the change of the read-out against control, counted positive when it falls. Higher therefore signals strong suppression. `O=C(CCCCC(=O)Nc1nc2ccccc2[nH]1)Nc1nc2ccccc2[nH]1` returned an inhibition at NS3 (Hepatitis C virus) of 13%.
